# Laboratory results as given in patent publication US10849867B2, “Methods and compositions for treating conditions associated with an abnormal inflammatory response” (First Wave Bio, Inc., priority 2015, dated 2020).
# Columns and labels:
# [1] = tested on: human LPMCs T cells; assay: ΔΨm in T cells isolated from human intestine lamina propria (LPMC), TMRM with oligomycin (Example 2); format: cell-based
# Excerpt: Objective. […] Model. Lamina propria mononuclear cells (LPMC) in the human intestine are comprised in part by T cells, which mediate physiological and pathological processes including inflammatory bowel disease. LPMCs can be isolated from human tissue biopsies. After isolation […] cells remain viable ex vivo under appropriate culture conditions for periods of time that allow ex vivo experiments. These cells can be used to investigate mechanisms that regulate their mitochondrial function and survival. They contain respiring mitochondria and as such their response to mitochondrial uncouplers such as niclosamide may be assessed. This cellular model is used in conjunction with oligomycin that blocks oxidative phosphorylation and TMRM to monitor ΔΨm as described in Example 1. Cell isolation and culture. Cells are obtained from biopsy specimens of the small or large intestine or rectum of humans from areas of normal gastrointestinal tissue or with moderate to severe Crohn's disease (CD), ulcerative colitis (UC), or celiac disease. For the isolation of lamina propria mononuclear […] specimens are initially washed in Hank's balanced salt solution (HBSS) then are cut into 0.5-cm pieces, and are incubated with stirring in pre-warmed HBSS containing 1 mM DTT at 37° C. for 15 minutes. […] The isolated cells are counted and checked for viability using 0.1% trypan blue (viability ranges from 86% to 94%). […] In addition, anti-CD3 monoclonal antibody conjugated to FITC (excitation at 494 nm with emission detected at 521 nm) is additionally added during incubation with TMRM at 37° C. for 30 minutes. […] LPMC T cells are first defined by their fluorescence emission at 521 nm resulting from labeling with FITC-anti-CD3 antibody. The n fluorescence intensity of TMRM detected at 590 nm in the T cell population is measured. Median fluorescence intensity of the TMRM signal are computed. Ratios of the median fluorescence intensity of each treated sample to the control sample mean are then calculated as a measure of relative decrease in ΔΨm. […]
# [2] = tested on: TNBS-induced colitis; assay: Relapsing TNBS-induced colitis in mice, rectal niclosamide (Example 4); format: in vivo, C57BL/6J female mice; settings: relative to vehicle control
# Excerpt: Objective. […] Model. The TNBS-induced colitis is a commonly used experimental model for Inflammatory Bowel Disease (IBD). TNBS (trinitrobenzenesulfonic acid) is a chemical administered rectally in the form of an enema to mice or rats in combination with ethanol, which disrupts the mucous barrier, and induces colitis by […] proteins within the gut, causing them to become preferential targets for immune cells. The severity of TNBS-induced colitis depends largely on the dosage applied and the strain of animal used. In chronic, relapsing form of the model, animals are sensitized by escalating, intracolonic doses of TNBS. Disease is monitored in-life by weight loss. Histology of colon specimens is used to determine disease severity at study termination (Gastroenterology. 2003 December; 125(6). 1750-61; Inflamm Bowel Dis. 2006 October; 12(10):995-9.) Mouse strain and housing. C57BL/6J female mice (9-weeks old) are purchased by Jackson and are housed at a temperature ranging from 68 to 74° F. with a diurnal 12 hour light cycle in a specific pathogen-free facility in ventilated cages. Food and water is provided ad libitum. Animals are acclimated to local microbiota for 7 days before the beginning of the experiment. Cell isolation and culture procedures are as noted in Example 2. Conditioning to induce colitis. To perform the studies of relapsing hapten-induced colitis 4 escalating doses of TNBS in 50% ethanol are administered at weekly intervals to lightly anesthetized mice through a 3.5Fr catheter inserted into the rectum. The catheter tip is inserted 4 cm proximal to the anal verge, and 150 μL of fluid is slowly instilled into the colon, after which the mouse is held in a vertical position for 30 seconds per rectum at weekly intervals. […] For the clinical assessment of colitis, animal weight, diarrhea (0=absent; 1=present), rectal prolapse (0=absent; l=present) and presence of blood in the stool (0=absent; l=present) is recorded daily. […] For statistical comparisons, two-way Anova test with Bonferroni correction is calculated with […] software.
smiles,measurement,setting,value
"O=C(Nc1ccc([N+](=O)[O-])cc1Cl)c1cc(Cl)ccc1O [Niclosamide, 5-chloro-N-(2-chloro-4-nitrophenyl)-2-hydroxybenzamide]",change in ΔΨm in human LPMCs T cells,"[1]; TMRM, oligomycin, relative to negative controls",dose-related decrease
same,concentrations of niclosamide that decrease ΔΨm (p<0.05),"[1]; human LPMCs T cells, relative to negative controls",≥ 5 µM
same,mitochondrial uncoupling in lamina propria T cell,[1]; niclosamide 5 μM,more than 50%
same,colitis clinical scores,"[2]; daily, 1-100 mg/kg",dose-related decrease
same,colitis histologic scores,"[2]; daily, 1-100 mg/kg",dose-related decrease
same,doses that significantly reduce both clinical and histologic scores (p<0.05),[2],≥ 3 mg/kg
